Experimental data from publication PMC10586506 (Drug Metabolism and Disposition, 2023).
pIC50: −log10 of the molar value. Structures can show the parent of a compound that is named as a salt. Where two headings read alike, the source gives them in different places.

Legend:
human OCT3 = target: T1, human OCT3 (Homo sapiens, UniProt O75751); test: OCT3 inhibition in HEK293-LV cells overexpressing the transporter; assay type: cell-based; conditions: for inhibition at 10 µM / inhibition at 100 µM: read-out: OCT3 (%) percent inhibition of transporter activity
T1 sequence (O75751 1-556): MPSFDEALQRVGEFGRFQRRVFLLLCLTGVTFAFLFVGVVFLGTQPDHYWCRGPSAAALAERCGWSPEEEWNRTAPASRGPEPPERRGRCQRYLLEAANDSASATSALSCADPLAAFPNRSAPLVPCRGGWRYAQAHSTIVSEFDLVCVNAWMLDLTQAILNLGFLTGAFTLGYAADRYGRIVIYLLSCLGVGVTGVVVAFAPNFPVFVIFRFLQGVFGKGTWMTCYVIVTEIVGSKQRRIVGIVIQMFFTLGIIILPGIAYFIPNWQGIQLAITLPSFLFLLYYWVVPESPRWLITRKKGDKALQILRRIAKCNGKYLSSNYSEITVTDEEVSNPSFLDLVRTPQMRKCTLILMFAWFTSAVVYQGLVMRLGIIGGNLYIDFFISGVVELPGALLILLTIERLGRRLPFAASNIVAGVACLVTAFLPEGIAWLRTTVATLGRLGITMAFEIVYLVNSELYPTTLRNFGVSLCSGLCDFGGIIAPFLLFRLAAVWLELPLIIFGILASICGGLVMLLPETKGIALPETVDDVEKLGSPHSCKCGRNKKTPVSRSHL

human PMAT = target: T2, human PMAT (Homo sapiens, UniProt Q7RTT9); test: PMAT inhibition in HEK293-LV cells overexpressing the transporter; assay type: cell-based; conditions: for inhibition at 10 µM / inhibition at 100 µM: read-out: PMAT (%) percent inhibition of transporter activity
T2 sequence (Q7RTT9 1-530): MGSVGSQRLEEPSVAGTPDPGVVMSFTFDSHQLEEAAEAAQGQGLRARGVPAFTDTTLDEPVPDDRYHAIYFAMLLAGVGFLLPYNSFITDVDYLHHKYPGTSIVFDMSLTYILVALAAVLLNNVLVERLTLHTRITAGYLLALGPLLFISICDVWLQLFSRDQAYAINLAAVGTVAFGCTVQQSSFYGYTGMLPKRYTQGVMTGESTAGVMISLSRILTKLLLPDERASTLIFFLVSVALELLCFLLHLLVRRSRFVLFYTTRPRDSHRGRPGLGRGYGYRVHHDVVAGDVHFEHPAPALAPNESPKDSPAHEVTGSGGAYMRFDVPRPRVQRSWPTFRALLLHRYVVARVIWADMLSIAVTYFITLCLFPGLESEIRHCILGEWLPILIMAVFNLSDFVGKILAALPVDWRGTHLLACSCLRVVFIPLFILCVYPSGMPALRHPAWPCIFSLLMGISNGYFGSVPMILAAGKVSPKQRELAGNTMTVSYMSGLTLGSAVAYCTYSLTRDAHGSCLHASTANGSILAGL

[1] = humans, single 2.7 g dose of goldenseal; ref Gupta et al., 2015; cited from earlier work
human THTR2 = target: T3, human THTR2 (Homo sapiens, UniProt Q9BZV2); test: THTR2 inhibition in HEK293-LV cells overexpressing the transporter; assay type: cell-based; conditions: for inhibition at 10 µM / inhibition at 100 µM: read-out: THTR2 (%) percent inhibition of transporter activity
T3 sequence (Q9BZV2 1-496): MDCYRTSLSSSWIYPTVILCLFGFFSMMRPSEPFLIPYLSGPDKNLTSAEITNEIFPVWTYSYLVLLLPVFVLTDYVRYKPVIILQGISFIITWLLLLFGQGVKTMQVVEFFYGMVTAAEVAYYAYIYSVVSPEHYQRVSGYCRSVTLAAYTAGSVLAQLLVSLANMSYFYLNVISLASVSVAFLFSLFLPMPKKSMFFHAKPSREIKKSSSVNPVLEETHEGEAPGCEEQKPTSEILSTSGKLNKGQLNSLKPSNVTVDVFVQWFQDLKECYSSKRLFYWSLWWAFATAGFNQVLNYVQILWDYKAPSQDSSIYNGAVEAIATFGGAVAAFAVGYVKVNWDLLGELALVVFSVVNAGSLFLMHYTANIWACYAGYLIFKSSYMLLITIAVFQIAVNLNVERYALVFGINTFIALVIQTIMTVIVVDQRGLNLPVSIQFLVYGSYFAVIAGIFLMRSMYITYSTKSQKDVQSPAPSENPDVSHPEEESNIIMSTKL

human OCT1 = conditions: ref Nguyen et al., 2021, cited from earlier work; for pIC50: read-out: IC50 OCT1, extract normalized to berberine
[2] = Oral metformin/oral inhibitor pharmacokinetic study in mice; conditions: for decrease in geometric mean metformin Cmax relative to vehicle: oral metformin 10 mg/kg with oral test article; for effect on metformin pharmacokinetics: oral metformin with oral test article
[3] = humans; ref Nguyen et al., 2021; cited from earlier work
Caco-2 cell monolayers = conditions: cited from earlier work

| SMILES | inhibition at 10 µM (human OCT3) [%] | inhibition at 100 µM (human OCT3) [%] | inhibition at 10 µM (human PMAT) [%] | inhibition at 100 µM (human PMAT) [%] | Cmax [1] [nM] | inhibition at 10 µM (human THTR2) [%] | inhibition at 100 µM (human THTR2) [%] | pIC50 (human OCT1) | inhibition of OCT1 (in words) (human OCT1) | decrease in geometric mean metformin Cmax relative to vehicle [2] | effect on metformin pharmacokinetics [2] | inhibition of OCT3 (in words) (human OCT3) | inhibition of PMAT (in words) (human PMAT) | inhibition of THTR2 (in words) (human THTR2) | also measured |
| --- | --- | --- | --- | --- | --- | --- | --- | --- | --- | --- | --- | --- | --- | --- | --- |
| COc1ccc2c(c1OC)C(=O)O[C@@H]2[C@H]1c2cc3c(cc2CCN1C)OCO3 [(–)-β-hydrastine, (–)-β-Hydrastine] | 3 | 24 | -9 | 37 | 1.75 | 7 | -4 | 5.18 | only inhibited OCT1 | no effect | no effect | – | – | – | – |
| COc1ccc2cc3[n+](cc2c1OC)CCc1cc2c(cc1-3)OCO2 [Berberine, Berberine chloride hydrate] | 55 | 95 | 8 | 71 | 470 | -2 | 43 | 4.72 | inhibited | no effect | no effect | inhibited | inhibited | inhibited | IC50 of berberine alone relative to goldenseal extract (human OCT3; across OCT3, PMAT and THTR2, fold higher): 2.8- to 7.4 fold; estimated intestinal luminal inhibitor concentration [3]: 354 µM |
| CN1CCc2cc3c(cc2C1O)OCO3 (stereo not drawn) [Hydrastinine, Hydrastinine chloride monohydrate] | -5 | -3 | 11 | 43 | – | 2 | 19 | – | did not inhibit | – | – | did not inhibit | did not inhibit | did not inhibit | – |
| CN(C)C(=N)N=C(N)N [metformin, Metformin hydrochloride salt] | – | – | – | – | – | – | – | – | – | – | – | – | – | – | percent contribution of OCT1 to metformin uptake (Caco-2 cell monolayers; ref Han et al., 2015): 25%; percent contribution of PMAT to metformin uptake (Caco-2 cell monolayers; ref Han et al., 2015): 20%; percent contribution of SERT to metformin uptake (Caco-2 cell monolayers; ref Han et al., 2015): 20%; percent contribution of choline transporter to metformin uptake (Caco-2 cell monolayers; ref Han et al., 2015): 15%; percent contribution of passive diffusion to metformin uptake (Caco-2 cell monolayers; ref Han et al., 2015): 20%; percent contribution of OCT3 to metformin uptake (Caco-2 cell monolayers; ref Shirasaka et al., 2022): 10%; percent contribution of PMAT to metformin uptake (Caco-2 cell monolayers; ref Shirasaka et al., 2022): 10%; percent contribution of SERT to metformin uptake (Caco-2 cell monolayers; ref Shirasaka et al., 2022): 2%; percent contribution of THTR2 to metformin uptake (Caco-2 cell monolayers; ref Shirasaka et al., 2022): 22%; percent contribution of other (unidentified) transporters to metformin uptake (Caco-2 cell monolayers; ref Shirasaka et al., 2022): 1%; percent contribution of passive diffusion to metformin uptake (Caco-2 cell monolayers; ref Shirasaka et al., 2022): 55% |
